From PMC11031590, “Narazaciclib, a novel multi-kinase inhibitor with potent activity against CSF1R, FLT3 and CDK6, shows strong anti-AML activity in defined preclinical models” (Scientific Reports, 2024)
“And” between values parts separate entries of the source, which are not always exact repeats. Identical values can stand only once.

What was measured:
[1] = molecular target: CSF1R (Homo sapiens, UniProt P07333); experiment: CSF1R kinase inhibition assay; type: biochemical; conditions: read-out: IC50 CSF1R enzymatic activity
Chain of CSF1R (P07333 20-972): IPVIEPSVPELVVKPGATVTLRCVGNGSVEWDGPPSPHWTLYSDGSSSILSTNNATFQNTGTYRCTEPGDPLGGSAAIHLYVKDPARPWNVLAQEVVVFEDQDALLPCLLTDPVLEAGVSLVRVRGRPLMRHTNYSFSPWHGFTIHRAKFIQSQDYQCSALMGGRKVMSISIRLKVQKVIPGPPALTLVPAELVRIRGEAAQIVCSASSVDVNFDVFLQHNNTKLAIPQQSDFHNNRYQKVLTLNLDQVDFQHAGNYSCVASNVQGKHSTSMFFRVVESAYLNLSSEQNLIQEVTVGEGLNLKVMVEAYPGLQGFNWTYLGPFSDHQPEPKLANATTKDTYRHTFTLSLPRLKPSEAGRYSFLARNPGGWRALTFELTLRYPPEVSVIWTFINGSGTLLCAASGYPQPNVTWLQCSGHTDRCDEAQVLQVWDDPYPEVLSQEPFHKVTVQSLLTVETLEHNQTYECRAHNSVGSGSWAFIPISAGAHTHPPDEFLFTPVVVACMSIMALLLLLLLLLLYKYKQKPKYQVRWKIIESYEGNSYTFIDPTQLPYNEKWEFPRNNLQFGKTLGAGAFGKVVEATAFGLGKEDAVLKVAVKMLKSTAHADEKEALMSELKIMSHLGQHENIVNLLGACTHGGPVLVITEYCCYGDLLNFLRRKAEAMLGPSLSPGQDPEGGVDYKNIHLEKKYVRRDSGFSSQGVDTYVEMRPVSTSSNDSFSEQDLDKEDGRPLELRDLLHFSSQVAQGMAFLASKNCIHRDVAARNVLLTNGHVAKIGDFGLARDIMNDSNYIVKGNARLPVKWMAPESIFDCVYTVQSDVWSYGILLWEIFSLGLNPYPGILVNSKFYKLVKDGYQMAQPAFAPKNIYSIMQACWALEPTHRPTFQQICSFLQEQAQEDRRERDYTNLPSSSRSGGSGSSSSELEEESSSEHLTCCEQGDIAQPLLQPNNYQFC
Method: For CSF1R inhibition, TK-substrate-biotin and ATP were incubated at room temperature for 40 min, followed by adding different concentrations of […] and TK-antibody-Cryptate into each well of the assay plate and incubation at room temperature for 1 h. The fluorescence signal was read at 615 nm (Cryptate) and 665 nm (XL665) on an Envision 2104 plate reader.

[2] = molecular target: FLT3 (Homo sapiens, UniProt P36888); experiment: FLT3 kinase inhibition assay (ADP-Glo); type: biochemical; conditions: ATP 10 μM; read-out: IC50 FLT3 enzymatic activity
Chain of FLT3 (P36888 27-993): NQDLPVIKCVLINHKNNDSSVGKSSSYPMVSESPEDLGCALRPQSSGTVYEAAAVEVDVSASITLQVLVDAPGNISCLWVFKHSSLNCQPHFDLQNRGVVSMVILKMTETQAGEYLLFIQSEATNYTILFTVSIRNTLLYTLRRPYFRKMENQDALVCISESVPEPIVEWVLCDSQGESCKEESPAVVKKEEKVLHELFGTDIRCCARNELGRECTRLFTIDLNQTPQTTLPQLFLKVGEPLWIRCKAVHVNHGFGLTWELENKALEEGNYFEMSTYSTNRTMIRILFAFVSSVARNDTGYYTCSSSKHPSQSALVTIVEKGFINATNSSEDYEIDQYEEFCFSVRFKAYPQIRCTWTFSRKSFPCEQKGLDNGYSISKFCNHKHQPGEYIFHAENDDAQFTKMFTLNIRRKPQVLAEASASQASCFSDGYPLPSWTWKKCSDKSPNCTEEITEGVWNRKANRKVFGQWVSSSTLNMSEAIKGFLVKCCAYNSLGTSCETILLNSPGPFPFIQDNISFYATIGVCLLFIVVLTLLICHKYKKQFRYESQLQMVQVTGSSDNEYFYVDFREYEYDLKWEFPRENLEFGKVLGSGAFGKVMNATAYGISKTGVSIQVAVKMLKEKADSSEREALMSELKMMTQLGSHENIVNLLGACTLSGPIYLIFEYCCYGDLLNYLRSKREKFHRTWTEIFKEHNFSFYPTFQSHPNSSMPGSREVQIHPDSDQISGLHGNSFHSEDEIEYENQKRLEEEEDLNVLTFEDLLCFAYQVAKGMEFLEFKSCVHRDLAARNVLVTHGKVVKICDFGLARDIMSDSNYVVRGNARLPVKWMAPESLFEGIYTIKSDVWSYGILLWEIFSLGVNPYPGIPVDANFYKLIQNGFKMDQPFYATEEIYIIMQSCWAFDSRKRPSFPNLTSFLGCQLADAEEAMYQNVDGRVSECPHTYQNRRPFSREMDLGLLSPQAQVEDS
Method: Different assays were used to measure the inhibitory potencies of narazaciclib on FLT3, CSF1R and CDK6. For FLT3 inhibition, the enzyme, substrate (final concentration at 15 μg/μL), ATP (final concentration at 10 μM) and inhibitors were diluted and mixed in kinase buffer (40 mM Tris, pH 7.5; 20 mM MgCl2; 0.1 mg/ml BSA; 50 μM DTT). The mixtures were incubated at 25 °C for 120 min. Then, ADP‐Glo™ Reagent (Promega) was added to the mix and incubated at 25 °C for 40 min followed by the addition of kinase detection reagent and another 30 min at 25 °C. Luminescence was recorded with an integration time of 0.5 s.

[3] = molecular target: CDK6-CyclinD1 (Homo sapiens, UniProt Q00534); experiment: CDK6 TR-FRET kinase assay; type: biochemical; conditions: ATP 250 µM; read-out: IC50 CDK6 enzymatic activity
Chain of CDK6-CyclinD1 (Q00534 whole entry): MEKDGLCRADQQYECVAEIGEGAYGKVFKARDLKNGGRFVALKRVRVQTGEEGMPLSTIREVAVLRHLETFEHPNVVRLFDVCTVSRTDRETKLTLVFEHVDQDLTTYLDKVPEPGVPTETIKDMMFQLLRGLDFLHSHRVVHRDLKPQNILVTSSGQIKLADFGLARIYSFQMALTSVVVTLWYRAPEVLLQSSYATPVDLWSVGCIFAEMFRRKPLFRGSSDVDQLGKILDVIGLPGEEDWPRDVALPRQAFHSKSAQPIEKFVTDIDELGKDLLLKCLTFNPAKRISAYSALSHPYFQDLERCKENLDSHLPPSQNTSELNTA
Chain of CDK6-CyclinD1 (P24385 whole entry partner): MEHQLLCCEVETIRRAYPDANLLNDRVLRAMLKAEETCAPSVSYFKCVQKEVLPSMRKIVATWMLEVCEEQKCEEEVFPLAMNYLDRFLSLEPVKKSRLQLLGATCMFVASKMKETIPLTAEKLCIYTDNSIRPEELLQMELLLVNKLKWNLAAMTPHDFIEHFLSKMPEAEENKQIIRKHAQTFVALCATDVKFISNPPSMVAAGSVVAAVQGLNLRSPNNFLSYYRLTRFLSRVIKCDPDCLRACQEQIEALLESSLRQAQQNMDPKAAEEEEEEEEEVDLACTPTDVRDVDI
Method: For CDK6 inhibition, a Time-resolved fluorescence energy transfer (TR-FRET) kinase assay was performed according to the manufacturer’s instructions. Briefly, narazaciclib at various concentrations was pre-incubated with CDK6-CyclinD1 in kinase buffer at 25 °C for 1 h and then incubated with 12.5 nM Ulight-4E-BP1 peptide and 250 µM ATP at 25 °C for 2 h. The reaction was stopped by incubating with EDTA-containing stop buffer at 25 °C for 5 min. Subsequently, the mixture was incubated with detection buffer at 25 °C for 1 h. Finally, the signal was read on a Nivo Reader in TR-FRET mode (excitation at 320 nm and emission at 665 nm and 615 nm). The signal of the blank control was subtracted from the maximum signal (DMSO without compound) as well as from the value of narazaciclib at each concentration. This corrected emission ratio (ER) was used to calculate the percentage of enzyme activity recovery: enzyme activity recovery (%) = [(narazaciclib ER – blank control ER)[…]] × 100. The results were fitted to a dose–response curve by a 4-parameter log-logistic model: Inhibition%=Bottom+Top-Bottom/1+10^logEC50-x∗HillSlope

[4] = system: Ba/F3-RBM6-CSF1R cell line; experiment: Ba/F3-RBM6-CSF1R proliferation assay (CTG); type: cell-based, mouse; conditions: Mus musculus; not requiring CSF1
Method: (§1) The recombinant Ba/F3 cell lines overexpressing human CSF1R, or human RBM6-CSF1R, or human ETV6-CSF1R were generated using a retrovirus vector (Kyinno Co., Ltd. Beijing). The recombinant Ba/F3 lines overexpressing human Kras G12C orEGFR-L718Q mutants, and different mutant variants of FLT3 were also similarly created as well. A standard proliferation assay via CTG readout was performed according to the vendor’s instructions (KYinno Biotechnology Co., Ltd. Beijing).

[5] = system: Ba/F3-FLT3-ITD (N701K); experiment: Ba/F3-FLT3-ITD (N701K) proliferation assay; type: cell-based, mouse
Method: as §1

[6] = system: Ba/F3-FLT3-ITD (D835F); experiment: Ba/F3-FLT3-ITD (D835F) proliferation assay; type: cell-based, mouse
Method: as §1

[7] = system: Ba/F3-FLT3-F691L; experiment: Ba/F3-FLT3-F691L proliferation assay; type: cell-based, mouse
Method: as §1

[8] = system: Ba/F3-FLT3-N701K; experiment: Ba/F3-FLT3-N701K proliferation assay; type: cell-based, mouse
Method: as §1

## CN1CCN(c2ccc(Nc3ncc4cc(C#N)c(=O)n(C5CCCC5)c4n3)cc2)CC1 [Narazaciclib, narazaciclib]
[1]
  IC50: ~0.285 nM and 0.29 nM
[2]
  IC50: ~19.8 nM and 19.8 nM
[3]
  IC50: 0.53 nM
[4]
  IC50: 36.9 nM
[5]
  % of Ba/F3-FLT3 (IC50): 38.91%
[5]; Mus musculus
  IC50: 117 nM
[6]
  % of Ba/F3-FLT3 (IC50): 23.10%
[6]; Mus musculus
  IC50: 69.6 nM
[7]
  % of Ba/F3-FLT3 (IC50): 44.19%
[7]; Mus musculus
  IC50: 133 nM
[8]
  % of Ba/F3-FLT3 (IC50): 131.40%
[8]; Mus musculus
  IC50: 396 nM
